Experimental data as given in PubChem BioAssay (NCI).
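Cells were grown in 96-well plates and exposed to each compound for 48 hours at five concentrations; endpoints were interpolated linearly between bracketing concentrations, or set to the highest concentration if not reached. TGI denotes the concentration required for complete inhibition of growth.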

Key:
Experiment in all cases: DTP human tumour cell line panel, 48 h
HCT-15 colon = system: HCT-15 colon
HL-60(TB) leukemia = system: HL-60(TB) leukemia
K-562 leukemia = system: K-562 leukemia
M14 melanoma = system: M14 melanoma
MDA-MB-231 breast = system: MDA-MB-231 breast
MDA-MB-435 = system: MDA-MB-435
NCI-H23 lung = system: NCI-H23 lung
OVCAR-4 ovarian = system: OVCAR-4 ovarian
RPMI-8226 leukemia = system: RPMI-8226 leukemia
SK-MEL-2 melanoma = system: SK-MEL-2 melanoma
SK-MEL-28 melanoma = system: SK-MEL-28 melanoma
SN12C renal = system: SN12C renal
SNB-75 CNS = system: SNB-75 CNS
TK-10 renal = system: TK-10 renal

Row | SMILES | TGI (HCT-15 colon) | TGI (HL-60(TB) leukemia) | TGI (K-562 leukemia) | TGI (M14 melanoma) | TGI (MDA-MB-231 breast) | TGI (MDA-MB-435) | TGI (NCI-H23 lung) | TGI (OVCAR-4 ovarian) | TGI (RPMI-8226 leukemia) | TGI (SK-MEL-2 melanoma) | TGI (SK-MEL-28 melanoma) | TGI (SN12C renal) | TGI (SNB-75 CNS) | TGI (TK-10 renal)
1 | CSC(=NCCN=C(NS(=O)(=O)c1ccc(Cl)cc1)SC)NS(=O)(=O)c1ccc(Cl)cc1 | > 100 µM | > 100 µM | > 100 µM | > 100 µM | > 100 µM | > 100 µM | > 100 µM | > 100 µM | > 100 µM | > 100 µM | > 100 µM | > 100 µM | 51.3 µM | > 100 µM
2 | CN1C[C@@H]2CCCN2P1Oc1cccc2cccnc12 (some centres not stated) | > 100 µM | 72.9 µM | > 100 µM | > 100 µM | > 100 µM | > 100 µM | 57.7 µM | > 100 µM | 66.2 µM | > 100 µM | > 100 µM | > 100 µM | > 100 µM | > 100 µM
3 | Cn1c(=O)n(CC(Br)CBr)c(=O)n(CC(Br)CBr)c1=O (configuration not stated) | > 100 µM | 58 µM | > 100 µM | 73.6 µM | > 100 µM | > 100 µM | > 100 µM | > 100 µM | 63.8 µM | > 100 µM | > 100 µM | 67.3 µM | > 100 µM | > 100 µM
4 | Cc1nc2c(-c3ccccc3)[nH]c(C)c2c(=O)o1 | > 100 µM | > 100 µM | > 100 µM | > 100 µM | > 100 µM | > 100 µM | > 100 µM | > 100 µM | > 100 µM | > 100 µM | > 100 µM | > 100 µM | > 100 µM | > 100 µM
5 | Clc1nc2c(-c3cccs3)ncnc2n1Cc1ccccc1 | > 100 µM | > 70.3 µM | > 100 µM | > 100 µM | > 81.5 µM | > 100 µM | > 100 µM | > 100 µM | 70.6 µM | > 100 µM | > 100 µM | > 100 µM | 58.7 µM | 61.5 µM
6 | CCCc1c2c3ccccc3nc-2nc2ccccn12 | > 100 µM | > 100 µM | > 100 µM | > 100 µM | > 100 µM | > 100 µM | 88.6 µM | > 100 µM | > 100 µM | > 100 µM | > 100 µM | > 100 µM | > 100 µM | > 100 µM
7 | COC/C=C\[C@@]1(O)CCCC[C@@H]1CC(OC)OC | > 100 µM | > 28.4 µM | > 100 µM | > 100 µM | > 100 µM | > 76.1 µM | 98.7 µM | > 76.4 µM | 70.9 µM | > 100 µM | > 80.6 µM | 43.7 µM | > 100 µM | > 100 µM
8 | COC(=O)C1=C(C)NC(C)=C([N+](=O)[O-])C1c1cccc(NO)c1 (configuration not stated) | 9.77 µM | 5.57 µM | > 27.1 µM | 12.3 µM | 17 µM | 5.3 µM | > 100 µM | 40.6 µM | 12.6 µM | > 43.8 µM | > 69.4 µM | > 30.8 µM | > 100 µM | 26 µM
